Experimental findings from patent US20110092423A1, “INHIBITORS OF Akt ACTIVITY” (GlaxoSmithKline, LLC, priority 2008, published 2011) are described below.

The target of the test is T1, full length AKT1 (Homo sapiens, UniProt P31749).
T1 construct: Full-length human AKT1 gene was amplified by PCR; His tag (from vector pFastbacHTb; purified on Nickel Sepharose) (N); made in house; host or cells: baculovirus; Sf9 / T. ni insect cells
The experiment in a line: Full-length AKT enzyme assay (substrate phosphorylation, SPA). The test is classed as biochemical. The conditions noted are these: in at least one experimental run; pIC50 = -log(IC50), IC50 in molar units; 4 uM ATP, 10 nM enzyme; read-out: pIC50 value against full length AKT1 (converted). An excerpt: Cloning of Full-Length Human (FL) AKT1:
Full-length human AKT1 gene was amplified by PCR from a plasmid containing myristylated-AKT1-ER (gift from Robert T. Abraham, Duke University under MTA, described in Klippel et al. in Molecular and Cellular Biology 1998 Volume 18 p. 5699) using the 5′ primer: SEQ. ID NO: 2 5′ […] 3′ and the 3′ primer: SEQ. ID NO: 3 […] 3′. The 5′ primer included a BamHI site and the 3′ primer included an XhoI site for cloning purposes. The resultant PCR product was subcloned in pcDNA3 as a BamHI/XhoI fragment. […]
Compounds of the present invention were tested for AKT 1, 2, and 3 protein serine kinase inhibitory activity in substrate phosphorylation assays. […] Substrate phosphorylation was detected by the following procedure.
Assays were performed in 384 well U-bottom white plates. […] The reaction was stopped by the addition of 50 ul SPA bead mix (Dulbecco's PBS without Mg^2+ and Ca^2+, 0.1% Triton X-100, 5 mM EDTA, 50 uM ATP, 2.5 mg/ml Streptavidin-coated SPA beads.) The plate was sealed, the beads were allowed to settle overnight, and then the plate was counted in a Packard Topcount Microplate Scintillation Counter (Packard Instrument Co., Meriden, Conn.). […]

T1 sequence (P31749 whole entry): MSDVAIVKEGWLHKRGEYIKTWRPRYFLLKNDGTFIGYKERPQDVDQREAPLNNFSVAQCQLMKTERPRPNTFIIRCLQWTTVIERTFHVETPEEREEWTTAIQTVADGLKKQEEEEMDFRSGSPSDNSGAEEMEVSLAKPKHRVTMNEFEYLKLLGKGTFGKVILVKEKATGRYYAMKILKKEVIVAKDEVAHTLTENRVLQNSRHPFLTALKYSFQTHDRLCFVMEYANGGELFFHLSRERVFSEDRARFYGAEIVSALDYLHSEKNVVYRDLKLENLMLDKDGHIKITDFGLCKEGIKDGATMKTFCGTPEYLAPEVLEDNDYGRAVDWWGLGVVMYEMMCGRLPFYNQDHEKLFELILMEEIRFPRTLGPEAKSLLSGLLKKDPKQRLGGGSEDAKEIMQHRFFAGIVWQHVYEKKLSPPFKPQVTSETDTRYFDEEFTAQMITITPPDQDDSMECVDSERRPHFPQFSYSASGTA

In the case of `Cn1ncc(Cl)c1-c1ncc(C(=O)N[C@H](CN)Cc2cccc(F)c2)s1` [Example 2, N-{(1S)-2-amino-1-[(3-fluorophenyl)methyl]ethyl}-2-(4-chloro-1-methyl-1H-pyrazol-5-yl)-1,3-thiazole-5-carboxamide], the IC50 is 10 nM.
